From patent publication US20250263404A1, “AMINOPYRIDINES AS ACTIVATORS OF PI3 KINASE” (UCL Business Ltd, priority 2021, published 2025)

Biological target: PI3Kα (Homo sapiens, UniProt P42336)
Test: pAKT S473 ELISA in A549 cells (PI3Kα activation)
Format: cell-based
Design: endogenous in cells; host or cells: A549
Details: for EC50: A549 cells, 15 min treatment, pAKT S473 ELISA, normalised to Emax of 1 μM insulin, read-out: Av EC50; for Emax at 10 µM: A549, 0.25 h, read-out: <50% response at 10 μM
Procedure: EC50 values were determined by quantifying phosphorylation on S473 residues of Akt in A549 human adenocarcinoma cells by ELISA (enzyme linked immunoadsorbent assay, R&D Systems, DYC887BE). A549 cells were seeded into 96-well plates (50,000 cells/well) in DMEM supplemented with 10% foetal bovine serum and 1% penicillin-streptomyocin. Following 24 h in culture cells were starved for 24 h in serum-free DMEM before 15 minute treatment with a concentration response curve of compounds. Experimental compounds were diluted in DMSO into […] 1:3 concentration response curves in polypropylene V-bottom plates (SLS MIC9050). Concentration response curves were diluted to a 3× stock in serum-free DMEM. Standard 8-point concentration response curves were performed at 50, 16.7, 5.6, 1.9, 0.6, 0.2, 0.07, 0.02 μM and serum-free DMEM containing 0.5% DMSO was used as a negative control. […] A549 cells were seeded at 50,000 cells per well in 96-well plates in DMEM (10% FBS+1% P/S). The next day cells were washed once with PBS before addition of serum-free DMEM for 24 h. On the day of treatment cells, were incubated in fresh serum-free DMEM prior to treatment. Compounds solubilised to 10 mM in DMSO were diluted 1:3 in an 8-point concentration response curve in DMSO. Concentration response curves were diluted in serum-free DMEM by transfer into intermediate plates using a BRAVO liquid handler (Agilent). Intermediate plates were then used to treat cell plates using the BRAVO liquid handler. Compound concentration response curves had atop concentration of 50 μM and a final well concentration of 0.5% DMSO. Cell plates were treated for 15 min at 37° C., 5% CO2 before being washed with ice-cold PBS and lysed in lysis buffer 6 (R&D Systems #895561) and freezing at −80° C. Levels of pAKT-S473 were determined using the phospho-AKT (S473) pan-specific Duoset IC ELISA (R&D Systems #DYC887BE) in 96-well white high-binding plates (Corning #3922) according to manufacturer's instructions. Endpoint luminescence was measured using a Sense (Hidex) platereader. […] Data were transformed and EC50 data were determined by variable slope (4 parameters) non-linear regression using Prism 7 (Graphpad).

PI3Kα, sequence (P42336 whole entry): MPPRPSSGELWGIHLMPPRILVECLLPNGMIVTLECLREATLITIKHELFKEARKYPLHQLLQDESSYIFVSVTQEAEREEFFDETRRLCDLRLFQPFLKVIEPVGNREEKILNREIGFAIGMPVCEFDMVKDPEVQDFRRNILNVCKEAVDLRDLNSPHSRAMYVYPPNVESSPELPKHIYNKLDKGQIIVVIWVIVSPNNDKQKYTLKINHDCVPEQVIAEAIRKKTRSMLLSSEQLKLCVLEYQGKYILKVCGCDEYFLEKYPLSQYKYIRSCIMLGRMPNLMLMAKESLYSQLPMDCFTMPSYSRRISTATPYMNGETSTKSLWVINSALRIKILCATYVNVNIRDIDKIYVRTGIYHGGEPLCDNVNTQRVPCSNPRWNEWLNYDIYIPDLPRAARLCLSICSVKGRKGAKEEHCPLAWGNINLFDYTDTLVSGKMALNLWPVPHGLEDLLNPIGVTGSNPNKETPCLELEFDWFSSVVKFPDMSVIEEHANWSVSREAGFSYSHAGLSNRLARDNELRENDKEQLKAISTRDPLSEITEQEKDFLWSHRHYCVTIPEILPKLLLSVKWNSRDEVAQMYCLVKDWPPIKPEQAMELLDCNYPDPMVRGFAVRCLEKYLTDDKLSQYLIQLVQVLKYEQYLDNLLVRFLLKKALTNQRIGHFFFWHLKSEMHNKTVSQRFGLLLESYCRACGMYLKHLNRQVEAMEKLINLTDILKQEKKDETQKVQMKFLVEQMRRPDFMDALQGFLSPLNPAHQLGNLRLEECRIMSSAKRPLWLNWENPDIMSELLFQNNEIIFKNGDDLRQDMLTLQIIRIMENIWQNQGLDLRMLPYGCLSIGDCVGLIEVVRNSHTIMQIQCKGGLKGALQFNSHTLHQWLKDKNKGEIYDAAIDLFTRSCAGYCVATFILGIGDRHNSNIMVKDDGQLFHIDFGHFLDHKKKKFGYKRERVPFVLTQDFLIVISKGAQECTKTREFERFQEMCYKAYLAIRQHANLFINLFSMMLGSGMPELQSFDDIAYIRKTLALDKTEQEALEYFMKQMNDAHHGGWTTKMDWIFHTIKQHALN
PI3Kα, sequence (P27986 whole entry partner): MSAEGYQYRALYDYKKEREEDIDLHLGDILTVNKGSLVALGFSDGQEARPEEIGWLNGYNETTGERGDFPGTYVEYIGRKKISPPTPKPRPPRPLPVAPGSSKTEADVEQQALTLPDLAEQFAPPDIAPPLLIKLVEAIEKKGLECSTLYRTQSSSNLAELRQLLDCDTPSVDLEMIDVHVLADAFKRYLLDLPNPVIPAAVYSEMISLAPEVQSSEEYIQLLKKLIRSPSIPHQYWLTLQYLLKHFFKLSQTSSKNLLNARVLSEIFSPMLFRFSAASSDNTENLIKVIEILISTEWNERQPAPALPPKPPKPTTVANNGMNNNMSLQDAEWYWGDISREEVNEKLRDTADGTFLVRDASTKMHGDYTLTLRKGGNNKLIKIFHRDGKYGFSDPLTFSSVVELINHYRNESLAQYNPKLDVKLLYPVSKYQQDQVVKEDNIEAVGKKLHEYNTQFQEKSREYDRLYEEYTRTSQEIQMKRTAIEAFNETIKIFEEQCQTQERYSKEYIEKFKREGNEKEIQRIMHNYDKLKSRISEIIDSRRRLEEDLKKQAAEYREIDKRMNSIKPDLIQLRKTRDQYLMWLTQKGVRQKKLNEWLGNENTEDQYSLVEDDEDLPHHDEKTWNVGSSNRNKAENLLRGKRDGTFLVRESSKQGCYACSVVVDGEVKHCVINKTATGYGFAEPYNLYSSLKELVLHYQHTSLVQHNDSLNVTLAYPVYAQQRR

EC50	Emax at 10 µM	SMILES
≥ 50000 nM	–	COc1cc(Nc2cc(Nc3ccccc3)ccn2)cc(OC)c1OC [1 (1902)]
≥ 50000 nM	–	COc1cc(Nc2cc(Nc3ccn(C)n3)ccn2)cc(OC)c1OC [2 (1903)]
9710 nM	–	COc1cc(N2CCN(C)CC2)ccc1Nc1cc(Nc2ccn(C)n2)ccn1 [3 (1904)]
2080 nM	< 50%	COc1cc(Nc2cc(Nc3cnn(C)c3)ccn2)cc(OC)c1OC [4 (1905)]
440 nM	< 50%	COc1cc(Nc2cc(Nc3ccc4c(c3)CCN4C(C)=O)ccn2)cc(OC)c1OC [5 (1906)]
840 nM	< 50%	COc1cc(Nc2cc(Nc3ccc4c(c3)N(C(C)=O)CC4)ccn2)cc(OC)c1OC [6 (1907)]
540 nM	< 50%	COc1cc(N2CCOCC2)ccc1Nc1cc(Nc2cccc3c2N(C(C)=O)CC3)ccn1 [7 (1912)]
> 50000 nM	< 50%	CNC(=O)c1ccccc1Nc1ccnc(Nc2ccc(N3CCN(C)CC3)cc2OC)c1 [8 (1934)]
1580 nM	< 50%	CNC(=O)c1ccccc1Nc1ccnc(Nc2ccc(N3CCOCC3)cc2OC)c1 [9 (1935)]
5360 nM	< 50%	COc1cc(N2CCN(C)CC2)ccc1Nc1cc(Nc2cccc3c2N(C(C)=O)CC3)cc(C)n1 [10 (1936)]
2640 nM	–	CC(=O)N1CCc2cccc(Nc3ccnc(Nc4ccc(N5CCN(C)CC5)cc4)c3)c21 [11 (1937)]
1530 nM	–	CCN1CCN(c2ccc(Nc3cc(Nc4cccc5c4N(C(C)=O)CC5)ccn3)cc2)CC1 [12 (1938)]
4380 nM	–	COc1cc(N2CCCCC2)ccc1Nc1cc(Nc2cccc3c2N(C(C)=O)CC3)ccn1 [13 (1941)]
2270 nM	–	COc1cc(N2CCN(C(C)C)CC2)ccc1Nc1cc(Nc2cccc3c2N(C(C)=O)CC3)ccn1 [14 (1942)]
2390 nM	–	COc1cc(N2CCN(C)CC2)ccc1Nc1cc(Nc2cccc3c2N(C(=O)C(C)C)CC3)ccn1 [15 (1943)]
5530 nM	< 50%	COc1cc(N2CCN(C)CC2)ccc1Nc1nccc(Nc2cccc3c2N(C(C)=O)CC3)c1C [16 (1944)]
4780 nM	–	COCC(=O)N1CCc2cccc(Nc3ccnc(Nc4ccc(N5CCN(C)CC5)cc4OC)c3)c21 [17 (1950)]
3080 nM	–	COc1cc(N2CCN(C)CC2)ccc1Nc1nccc(Nc2cccc3c2N(C(C)=O)CC3)c1F [18 (1951)]
1010 nM	–	COc1cc(N2CCN(C)CC2)ccc1Nc1cc(Nc2cc(C)cc3c2N(C(C)=O)CC3)ccn1 [19 (1958)]
2280 nM	–	CCC(=O)N1CCc2cccc(Nc3ccnc(Nc4ccc(N5CCN(C)CC5)cc4OC)c3)c21 [20 (1959)]

EC50	Emax at 10 µM	SMILES
6680 nM	–	CCOCC(=O)N1CCc2cccc(Nc3ccnc(Nc4ccc(N5CCN(C)CC5)cc4OC)c3)c21 [21 (1961)]
7850 nM	–	CC(=O)N1CCc2cccc(Nc3ccnc(Nc4cccc(N5CCN(C)CC5)c4)c3)c21 [22 (1968)]
4530 nM	–	COc1cc(N2CCN(C)CC2)ccc1Nc1cc(Nc2ccccc2)ccn1 [23 (1971)]
1250 nM	–	COc1cc(N2CCN(C)CC2)ccc1Nc1cc(Nc2ccc3c(c2)CCN3C(C)=O)ccn1 [24 (1989)]
> 50000 nM	–	CC(=O)N1CCc2cccc(Nc3ccnc(Nc4ccc(N5CCN(C)CC5)cc4C(F)(F)F)c3)c21 [25 (1992)]
> 50000 nM	–	COc1cc(N2CCN(Cc3ccc(C)cc3)CC2)ccc1Nc1cc(Nc2cccc3c2N(C(C)=O)CC3)ccn1 [26 (1993)]
1300 nM	–	COCCN1CCN(c2ccc(Nc3cc(Nc4cccc5c4N(C(C)=O)CC5)ccn3)c(OC)c2)CC1 [27 (1994)]
1410 nM	< 50%	COc1cc(N2CCN(C)CC2)ccc1Nc1cc(Nc2cc(-c3ccccc3)nn2C)ccn1 [28 (1995)]
890 nM	–	COc1cc(N2CCN(C)CC2)ccc1Nc1cc(Nc2cc(C(C)(C)C)nn2C)ccn1 [29 (1998)]
4890 nM	–	COc1cc(N2CCN(C)CC2)ccc1Nc1cc(Nc2cc(C(C)C)nn2C)ccn1 [30 (2000)]
1550 nM	–	CCOc1cc(N2CCN(C)CC2)ccc1Nc1cc(Nc2cccc3c2N(C(C)=O)CC3)ccn1 [31 (2007)]
1460 nM	–	CC(=O)N1CCc2cccc(Nc3ccnc(Nc4ccc(N5CCN(C)CC5)cc4OC(C)C)c3)c21 [32 (2008)]
5230 nM	–	COCCOc1cc(N2CCN(C)CC2)ccc1Nc1cc(Nc2cccc3c2N(C(C)=O)CC3)ccn1 [33 (2009)]
> 50000 nM	–	CC(=O)N1CCc2cccc(Nc3ccnc(Nc4cccc(Oc5ccccc5)c4)c3)c21 [34 (2010)]
4970 nM	–	CC(=O)N1CCc2cccc(Nc3ccnc(Nc4ccc(C(N)=O)cc4)c3)c21 [35 (2011)]
8810 nM	–	CC(=O)N1CCc2cccc(Nc3ccnc(Nc4ccc(Oc5ccccc5)cc4)c3)c21 [36 (2013)]
> 50000 nM	–	CC(=O)N1CCc2cccc(Nc3ccnc(Nc4ccc(OCc5ccccc5)cc4)c3)c21 [37 (2014)]
1320 nM	–	CC(=O)N1CCc2cccc(Nc3ccnc(Nc4ccc(N5CCOCC5)cc4)c3)c21 [38 (2015)]
> 50000 nM	–	CC(=O)N1CCc2cccc(Nc3ccnc(Nc4ccccc4)c3)c21 [39 (2016)]
7400 nM	< 50%	CC(=O)N1CCc2cccc(Nc3ccnc(Nc4ccc(C(C)(C)C)cc4)c3)c21 [40 (2017)]

EC50	Emax at 10 µM	SMILES
1740 nM	< 50%	CC(=O)N1CCc2cccc(Nc3ccnc(Nc4ccc(C#N)cc4)c3)c21 [41 (2018)]
1370 nM	–	CNC(=O)c1ccc(Nc2cc(Nc3cccc4c3N(C(C)=O)CC4)ccn2)cc1 [42 (2019)]
> 50000 nM	–	CC(=O)N1CCc2cccc(Nc3ccnc(Nc4ccc5ccccc5n4)c3)c21 [43 (2020)]
> 50000 nM	–	CC(=O)N1CCc2cccc(Nc3ccnc(Nc4cc5ccccc5cn4)c3)c21 [44 (2021)]
> 50000 nM	–	CC(=O)N1CCc2cccc(Nc3ccnc(Nc4cc(-c5ccccc5)nn4C)c3)c21 [46 (2023)]
1760 nM	< 50%	CNC(=O)c1cccc(Nc2cc(Nc3cccc4c3N(C(C)=O)CC4)ccn2)c1 [47 (2026)]
1480 nM	< 50%	CC(=O)N1CCc2cccc(Nc3ccnc(Nc4nn(C)c5ccccc45)c3)c21 [48 (2027)]
440 nM	< 50%	CC(=O)N1CCc2cccc(Nc3ccnc(Nc4ccc5ncccc5c4)c3)c21 [49 (2028)]
1360 nM	–	COc1cc(N2CCN(C)CC2)ccc1Nc1cc(Nc2ccnc3ccccc23)ccn1 [50 (2029)]
310 nM	–	COc1cc(N2CCN(C)CC2)ccc1Nc1cc(Nc2ccc3scnc3c2)ccn1 [51 (2031)]
3810 nM	–	COc1cc(N2CCN(C)CC2)ccc1Nc1cc(Nc2ccc(S(C)(=O)=O)cc2)ccn1 [52 (2038)]
7850 nM	–	COc1cc(N2CCN(C)CC2)ccc1Nc1cc(Nc2ccncn2)ccn1 [53 (2039)]
1220 nM	–	COc1cc(N2CCN(C)CC2)ccc1Nc1cc(Nc2cccc(S(C)(=O)=O)c2)ccn1 [54 (2043)]
> 6120 nM	–	COc1cc(N2CCN(C)CC2)ccc1Nc1cc(Nc2ccncc2)ccn1 [55 (2045)]
1280 nM	–	COc1ccc(Nc2ccnc(Nc3ccc(N4CCN(C)CC4)cc3OC)c2)cc1NC(C)=O [56 (2046)]
> 50000 nM	–	COc1cc(N2CCN(C)CC2)ccc1Nc1cc(Nc2ccc3ncccc3c2)ccn1 [57 (2047)]
1350 nM	–	CNC(=O)c1cccc(Nc2ccnc(Nc3ccc(N4CCN(C)CC4)cc3OC)c2)c1 [58 (2049)]
550 nM	< 50%	COc1cc(N2CCN(C)CC2)ccc1Nc1cc(Nc2cccc(-c3ccccn3)c2)ccn1 [59 (2052)]
